Earlier results on two compounds are cited in US20260207703A1 (priority 2023, published 2026).

As a reminder, the half-life is the time in which the quantity being followed falls by half.

The structures appear in SMILES notation.

The conditions of the series: in vivo.

As to `C=CCN1CC[C@]23c4c5ccc(O)c4O[C@H]2C(=O)CC[C@@]3(O)[C@H]1C5` [Naloxone], the half-life was ~ 1 hr. For the compound `C=C1CC[C@@]2(O)[C@H]3Cc4ccc(O)c5c4[C@@]2(CCN3CC2CC2)[C@H]1O5` [nalmefene, 17-cyclopropylmethyl-4,5α-epoxy-6-methylenemorphinan-3,14-diol], the half-life was 8 to 11 h.
